The numbers were not newly measured in patent US20220023306A1, “USE OF A PPAR-DELTA AGONIST IN THE TREATMENT OF FATTY ACID OXIDATION DISORDERS (FAOD)” (Reneo Pharmaceuticals, Inc., priority 2019, published 2022), which cites them from elsewhere.

In one data set the test system is VLCAD. The note with it: VLCAD deficient cell line FB833; cited from earlier work.
For another data set, the system named is control myoblasts. To be noted: cited from earlier work.
The test system of another data set is CPT2-deficient myoblasts. The note with it: cited from earlier work; for FAO: CPT2-deficient myoblasts.
In data set [1] the test system is fibroblasts derived from patients with VLCAD, LCHAD and TFP deficiencies. To be noted: cited from earlier work.
For another data set, the system named is CPT2. To be noted: cultured patient fibroblasts carrying mild mutations of the CPT2 gene; cited from earlier work.

Read-outs that look alike come from different tables or passages of the source.

Consider `Cc1cc(SCc2sc(-c3ccc(C(F)(F)F)c(F)c3)nc2C)ccc1OCC(=O)O` [GW0742, [4-[[[2-[3-Fluoro-4-(trifluoromethyl)phenyl]-4-methyl-5-thiazolyl]methyl]thio]-2-methylphenoxy]acetic acid], for which the VLCAD enzyme activity result with VLCAD is listed as “increase”.
In the case of `Cc1cc(SCc2sc(-c3ccc(C(F)(F)F)cc3)nc2C)ccc1OCC(=O)O` [GW501516, 2-[2-Methyl-4-[[[4-methyl-2-[4-(trifluoromethyl)phenyl]-5-thiazolyl]methyl]thio]phenoxy]acetic acid], the VLCAD enzyme activity result in the data set on VLCAD is listed as “increase”.
In the case of `Cc1cc(SCc2sc(-c3ccc(C(F)(F)F)c(F)c3)nc2C)ccc1OCC(=O)O` [GW 072], in the data set on control myoblasts, the FAO result was “stimulated”. In the data set with CPT2-deficient myoblasts (CPT2-deficient cells), the long-chain acylcarnitine production result is on record as “normalized” and the “residual CPT2 activity” value is “increased”. Also, the FAO result with CPT2-deficient myoblasts is recorded as “restore”.
`CC(C)(Sc1ccc(CCN(CCCCC2CCCCC2)C(=O)NC2CCCCC2)cc1)C(=O)O` [GW 7647]: the FAO result in the data set on CPT2-deficient myoblasts was “no effect”.
For `CCCc1c(OCCCOc2ccc(OCC(=O)O)cc2)ccc(C(C)=O)c1O` [L-165,0411, [4-[3-(4-Acetyl-3-hydroxy-2-propylphenoxy)propoxy]phenoxy]acetic acid], in the data set with VLCAD, the VLCAD enzyme activity entry was “increase”.
On to `Cc1cnc(-c2ccc(C(F)(F)F)cc2)n1Cc1ccccc1OCCC[C@@H](C)CC(=O)O` [MA-0211], for which the fatty acid oxidation result in data set [1] (fibroblasts from patients with LCHAD deficiency), in data set [1] (fibroblasts from patients with TFP deficiency) and in data set [1] (fibroblasts from patients with VLCAD deficiency) was “improvements” in each case.
With `CC(C)(Oc1ccc(CCNC(=O)c2ccc(Cl)cc2)cc1)C(=O)O` [bezafibrate, 2-(4-{2-[(4-Chlorobenzoyl)amino]ethyl}phenoxy)-2-methylpropanoic acid], the “enhancement of deficient enzyme (CPT2)” value in the data set with CPT2 is given as “enhancement”. Also, the FAO entry with CPT2-deficient myoblasts was “restore”.
